{"source": "paper PMC12102759", "about": "(Protein Science : A Publication of the Protein Society, 2025)", "system": "PABPC1 PABC", "assay_type": "binding, human", "conditions": "DMS-BM library, bait PABPC1 PABC, row aa = residue at this position; for DMS-derived PSSM value, position L4: L = wild type; for DMS-derived PSSM value, position A6: A = wild type", "key": {"[1]": {"conditions": "prey ATXN2, peptide TLNPNAKEFNPRSFSQ, N = wild type"}, "[2]": {"conditions": "prey ATXN2, TLNPNAKEFNPRSF(averaged) over the two overlapping peptides, E = wild type"}, "[3]": {"conditions": "prey ATXN2, peptide KSTLNPNAKEFNPRSF"}, "[4]": {"conditions": "prey ATXN2, peptide KSTLNPNAKEFNPRSF, P = wild type"}, "[5]": {"conditions": "prey ATXN2, TLNPNAKEFNPRSF(averaged) over the two overlapping peptides, N = wild type"}, "[6]": {"conditions": "prey ATXN2, TLNPNAKEFNPRSF(averaged) over the two overlapping peptides, R = wild type"}, "[7]": {"conditions": "prey ATXN2, peptide TLNPNAKEFNPRSFSQ, P = wild type"}, "[8]": {"conditions": "prey ATXN2, TLNPNAKEFNPRSF(averaged) over the two overlapping peptides, F = wild type"}, "[9]": {"conditions": "prey ATXN2, peptide TLNPNAKEFNPRSFSQ, R = wild type"}, "[10]": {"conditions": "prey ATXN2, peptide TLNPNAKEFNPRSFSQ"}, "[11]": {"conditions": "prey ATXN2, peptide TLNPNAKEFNPRSFSQ, K = wild type"}, "[12]": {"conditions": "prey ATXN2, peptide KSTLNPNAKEFNPRSF, S = wild type"}, "[13]": {"conditions": "prey ATXN2, peptide KSTLNPNAKEFNPRSF, N = wild type"}}}
{"substance": "TLNPNAKEFNPRSFSQ N3Q (TLQPNAKEFNPRSFSQ)", "values": [{"measurement": "DMS-derived PSSM value, position N3", "setting": "[1]", "value": 0.055}]}
{"substance": "TLNPNAKEFNPRSF(averaged) P4G (TLNGNAKEFNPRSF)", "values": [{"measurement": "DMS-derived PSSM value (averaged), position P4", "setting": "prey ATXN2, TLNPNAKEFNPRSF(averaged) over the two overlapping peptides, P = wild type", "value": 0.00705}]}
{"substance": "TLNPNAKEFNPRSF(averaged) E8K (TLNPNAKKFNPRSF)", "values": [{"measurement": "DMS-derived PSSM value (averaged), position E8", "setting": "[2]", "value": 0.03159}]}
{"substance": "TLNPNAKEFNPRSFSQ E8N (TLNPNAKNFNPRSFSQ)", "values": [{"measurement": "DMS-derived PSSM value, position E8", "setting": "prey ATXN2, peptide TLNPNAKEFNPRSFSQ, E = wild type", "value": 0.1259}]}
{"substance": "KSTLNPNAKEFNPRSF L4V (KSTVNPNAKEFNPRSF)", "values": [{"measurement": "DMS-derived PSSM value, position L4", "setting": "[3]", "value": 0.01089}]}
{"substance": "TLNPNAKEFNPRSF(averaged) E8M (TLNPNAKMFNPRSF)", "values": [{"measurement": "DMS-derived PSSM value (averaged), position E8", "setting": "[2]", "value": 0.02105}]}
{"substance": "TLNPNAKEFNPRSFSQ N3F (TLFPNAKEFNPRSFSQ)", "values": [{"measurement": "DMS-derived PSSM value, position N3", "setting": "[1]", "value": 0}]}
{"substance": "KSTLNPNAKEFNPRSF F16A (KSTLNPNAKEFNPRSA)", "values": [{"measurement": "DMS-derived PSSM value, position F16", "setting": "prey ATXN2, peptide KSTLNPNAKEFNPRSF, F = wild type", "value": 0.08044}]}
{"substance": "TLNPNAKEFNPRSF(averaged) T1E (ELNPNAKEFNPRSF)", "values": [{"measurement": "DMS-derived PSSM value (averaged), position T1", "setting": "prey ATXN2, TLNPNAKEFNPRSF(averaged) over the two overlapping peptides, T = wild type", "value": 0.1201}]}
{"substance": "KSTLNPNAKEFNPRSF P13Q (KSTLNPNAKEFNQRSF)", "values": [{"measurement": "DMS-derived PSSM value, position P13", "setting": "[4]", "value": 0.08339}]}
{"substance": "TLNPNAKEFNPRSF(averaged) N10I (TLNPNAKEFIPRSF)", "values": [{"measurement": "DMS-derived PSSM value (averaged), position N10", "setting": "[5]", "value": 0.01803}]}
{"substance": "TLNPNAKEFNPRSF(averaged) R12S (TLNPNAKEFNPSSF)", "values": [{"measurement": "DMS-derived PSSM value (averaged), position R12", "setting": "[6]", "value": 0.1293}]}
{"substance": "TLNPNAKEFNPRSFSQ P11F (TLNPNAKEFNFRSFSQ)", "values": [{"measurement": "DMS-derived PSSM value, position P11", "setting": "[7]", "value": 0.1255}]}
{"substance": "KSTLNPNAKEFNPRSF L4D (KSTDNPNAKEFNPRSF)", "values": [{"measurement": "DMS-derived PSSM value, position L4", "setting": "[3]", "value": 0}]}
{"substance": "KSTLNPNAKEFNPRSF K9M (KSTLNPNAMEFNPRSF)", "values": [{"measurement": "DMS-derived PSSM value, position K9", "setting": "prey ATXN2, peptide KSTLNPNAKEFNPRSF, K = wild type", "value": 0.1105}]}
{"substance": "TLNPNAKEFNPRSF(averaged) F14E (TLNPNAKEFNPRSE)", "values": [{"measurement": "DMS-derived PSSM value (averaged), position F14", "setting": "[8]", "value": 0.01777}]}
{"substance": "TLNPNAKEFNPRSF(averaged) N10Q (TLNPNAKEFQPRSF)", "values": [{"measurement": "DMS-derived PSSM value (averaged), position N10", "setting": "[5]", "value": 0.06161}]}
{"substance": "TLNPNAKEFNPRSFSQ R12W (TLNPNAKEFNPWSFSQ)", "values": [{"measurement": "DMS-derived PSSM value, position R12", "setting": "[9]", "value": 0.01782}]}
{"substance": "TLNPNAKEFNPRSFSQ R12Y (TLNPNAKEFNPYSFSQ)", "values": [{"measurement": "DMS-derived PSSM value, position R12", "setting": "[9]", "value": 0.05186}]}
{"substance": "TLNPNAKEFNPRSFSQ A6R (TLNPNRKEFNPRSFSQ)", "values": [{"measurement": "DMS-derived PSSM value, position A6", "setting": "[10]", "value": 0}]}
{"substance": "TLNPNAKEFNPRSFSQ K7S (TLNPNASEFNPRSFSQ)", "values": [{"measurement": "DMS-derived PSSM value, position K7", "setting": "[11]", "value": 0.01353}]}
{"substance": "KSTLNPNAKEFNPRSF S2N (KNTLNPNAKEFNPRSF)", "values": [{"measurement": "DMS-derived PSSM value, position S2", "setting": "[12]", "value": 0}]}
{"substance": "TLNPNAKEFNPRSF(averaged) R12L (TLNPNAKEFNPLSF)", "values": [{"measurement": "DMS-derived PSSM value (averaged), position R12", "setting": "[6]", "value": 0.02116}]}
{"substance": "TLNPNAKEFNPRSF(averaged) K7H (TLNPNAHEFNPRSF)", "values": [{"measurement": "DMS-derived PSSM value (averaged), position K7", "setting": "prey ATXN2, TLNPNAKEFNPRSF(averaged) over the two overlapping peptides, K = wild type", "value": 0.03669}]}
{"substance": "TLNPNAKEFNPRSFSQ S13T (TLNPNAKEFNPRTFSQ)", "values": [{"measurement": "DMS-derived PSSM value, position S13", "setting": "prey ATXN2, peptide TLNPNAKEFNPRSFSQ, S = wild type", "value": 0.105}]}
{"substance": "KSTLNPNAKEFNPRSF S2E (KETLNPNAKEFNPRSF)", "values": [{"measurement": "DMS-derived PSSM value, position S2", "setting": "[12]", "value": 0.01242}]}
{"substance": "TLNPNAKEFNPRSF(averaged) F9V (TLNPNAKEVNPRSF)", "values": [{"measurement": "DMS-derived PSSM value (averaged), position F9", "setting": "[8]", "value": 0.0004395}]}
{"substance": "KSTLNPNAKEFNPRSF R14V (KSTLNPNAKEFNPVSF)", "values": [{"measurement": "DMS-derived PSSM value, position R14", "setting": "prey ATXN2, peptide KSTLNPNAKEFNPRSF, R = wild type", "value": 0.03521}]}
{"substance": "KSTLNPNAKEFNPRSF P6R (KSTLNRNAKEFNPRSF)", "values": [{"measurement": "DMS-derived PSSM value, position P6", "setting": "[4]", "value": 0}]}
{"substance": "TLNPNAKEFNPRSFSQ F9E (TLNPNAKEENPRSFSQ)", "values": [{"measurement": "DMS-derived PSSM value, position F9", "setting": "prey ATXN2, peptide TLNPNAKEFNPRSFSQ, F = wild type", "value": 0.05407}]}
{"substance": "TLNPNAKEFNPRSFSQ K7P (TLNPNAPEFNPRSFSQ)", "values": [{"measurement": "DMS-derived PSSM value, position K7", "setting": "[11]", "value": 0.006619}]}
{"substance": "TLNPNAKEFNPRSFSQ A6P (TLNPNPKEFNPRSFSQ)", "values": [{"measurement": "DMS-derived PSSM value, position A6", "setting": "[10]", "value": 0}]}
{"substance": "TLNPNAKEFNPRSFSQ T1M (MLNPNAKEFNPRSFSQ)", "values": [{"measurement": "DMS-derived PSSM value, position T1", "setting": "prey ATXN2, peptide TLNPNAKEFNPRSFSQ, T = wild type", "value": 0.006287}]}
{"substance": "TLNPNAKEFNPRSF(averaged) F14I (TLNPNAKEFNPRSI)", "values": [{"measurement": "DMS-derived PSSM value (averaged), position F14", "setting": "[8]", "value": 0.0374}]}
{"substance": "KSTLNPNAKEFNPRSF N5A (KSTLAPNAKEFNPRSF)", "values": [{"measurement": "DMS-derived PSSM value, position N5", "setting": "[13]", "value": 0}]}
{"substance": "KSTLNPNAKEFNPRSF S15I (KSTLNPNAKEFNPRIF)", "values": [{"measurement": "DMS-derived PSSM value, position S15", "setting": "[12]", "value": 0.03802}]}
{"substance": "KSTLNPNAKEFNPRSF N12R (KSTLNPNAKEFRPRSF)", "values": [{"measurement": "DMS-derived PSSM value, position N12", "setting": "[13]", "value": 0.008293}]}
{"substance": "TLNPNAKEFNPRSFSQ N3K (TLKPNAKEFNPRSFSQ)", "values": [{"measurement": "DMS-derived PSSM value, position N3", "setting": "[1]", "value": 0}]}
{"substance": "TLNPNAKEFNPRSFSQ P4Q (TLNQNAKEFNPRSFSQ)", "values": [{"measurement": "DMS-derived PSSM value, position P4", "setting": "[7]", "value": 0.03549}]}
